Data reported in US11624068B2, “Compositions and methods for improving immune system function” (Tufts Medical Center, Inc., priority 2016, dated 2023).

Assays:
Format in all cases: cell-based, human
CD4 T cells = assay: IL2 ELISA, T cells repeatedly stimulated with anti-CD3/CD28 beads (in vitro exhaustion model); settings: T cells continuously with Ezh2 inhibitor (10 nmol), after the 4th stimulation
Method: (§1) In experiments using p38MAPK, JNK, MEK1 and Ezh2 inhibitors, cells were grown in the continued presence of inhibitors. After each wash and activation step, cells were treated with a fresh batch of inhibitors. The following inhibitors were used: MAPKp38-SB202190 (10 μmol/ml) (Sigma, cat. S7067), JNK-SP600125 (10 μmol/ml) (Sigma, cat. S5567), MEK1-PD98059 (5 μmol/ml) (Calbiochem, cat. 513001), MEK1/2-inhibitor III (5 μmol/ml) (Calbiochem, cat. 444966) and Ezh2-[…] (10 nmol) (Millipore, cat. 505052). DMSO was used as a mock treatment. The specificity of p38MAPK, JNK and MEK1 inhibitors to block the downstream kinases, phospho-ATF2, phospho-cJun and phospho-ERK, respectively, was confirmed by westerns (FIG. 18A).
(§2) ELISA assays were performed using human IL2 and IFNγ Ready-SET-Go kits (eBioscience). Three replicates were included for each experimental set and each experiment was repeated three or more times. ELISA was performed on the supernatant saved from each stimulation step. CD4+ or CD8+ T cells were stimulated with anti-CD3/CD28 beads and cultured for 48 hours, after which cells were spun down and supernatants carefully removed and saved at −20° C. The same procedure was followed for the rest of the stimulation steps.
Human T cell isolation and culture in vitro. […] 48 hours after the first stimulation, cells were counted and washed, and beads were removed using a magnet. […]

H3-K27 trimethylation = assay: Western blot for H3K27me3 in repeatedly stimulated T cells; settings: inhibitor maintained in activation cultures; FIG. 2D
Method: as §1
(§3) For denaturing westerns, 20-40 μg of protein extracted from T cells was used. RIPA lysis buffer (Sigma, cat. R0278) was used to prepare whole cell extracts. For native gel analysis, cells were lysed in native lysis buffer (50 mM Tris-Cl, pH 8.0; 1% NP40; 150 mM NaCl, 100 μg leupeptin, 1 mM PMSF, 5 mM orthovanadate). For both native and denaturating conditions, samples were resolved on 4-15% TGX precast gels (Bio-Rad, cat. 456-1084) with the difference in running buffer. Native samples were run without SDS. […]

[1] = test system: H3-K27 trimethylation of the IL2 promoter; assay: ChIP with anti-H3K27me3 antibody and qPCR for IL2 promoter; settings: repeatedly stimulated CD4 T cells; FIG. 2E
Method: Chromatin immunoprecipitation assay. The ChIP assay was performed using a ChIP-IT high sensitivity kit (Active Motif, cat. 53040), following the manufacturer's recommended protocol. Human CD4+ T cells were repeatedly activated with CD3/CD28 beads in the continued presence of Ezh2 inhibitor or transfected with YY1 shRNA and a control after 2nd stimulation. Approximately 15 μg of chromatin was used in each reaction with an antibody that specifically recognizes H3K27me3 (Active Motif, cat. 39155). Fold enrichment was calculated relative to IgG and input.

T cells = assay: IFNγ ELISA, repeatedly stimulated T cells; settings: FIG. 16
Method: as §2
Human T cell isolation and culture in vitro. CD4+ and CD8+ T cells were enriched from peripheral blood mononuclear cells obtained from healthy donors. Leukoreduction filters from Boston Children's Hospital that were processed using histopaque (Sigma) cushions to separate PBMCs were used. Human CD8+ and CD4+ cells were enriched using naïve CD8 and CD4 T cell enrichment cocktail (BD Biosciences, cat. 51-900481 and 9002314, respectively). […] Cells were stimulated the same day with T-Activator CD3/CD28 dynabeads (Life Technologies, cat. 11131D) following the manufacturer's recommendations. 48 hours after the first stimulation, cells were counted and washed, and beads were removed using a magnet. This was followed by a second, third and fourth round of stimulations with fresh batches of CD3/CD28 beads. […]

CEA-CAR T cells = assay: IL2 ELISA in MIPCEA/CAR-T cell cocultures; settings: 2nd generation CAR-T, MIPCEA cocultures; Ezh2 inhibitor 10 nm or nivolumab 20 μg/ml
Method: as §2
To produce second generation CEA-CAR T cells, T cells were modified by retroviral gene therapy to express a single chain antibody domain (sFv) that recognizes CEA tumor antigen. This anti-CEA binding domain is fused together with the full length sequence of CD28 co-stimulatory molecule and sequences of the signaling chain of the CD3 complex (signal 1+2) (FIG. 6A) (Nolan et al., 1999). The clinical grade CEA-CAR vector producing cells have been successfully tested in a number of in vitro studies as well as in a clinical setting to modify T cells for breast cancer clinical trials (Katz et al., 2015). […]
MIP101 and MIPCEA, tumor cell coculture with CEA-CAR modified T cells. […] Each time after the coculture, tumor cells were trypsinized (cellgro) and counted.

MIPCEA cells = settings: by the 3rd co-culture; Ezh2 inhibitor 10 nm
Text: To produce second generation CEA-CAR T cells, T cells were modified by retroviral gene therapy to express a single chain antibody domain (sFv) that recognizes CEA tumor antigen. This anti-CEA binding domain is fused together with the full length sequence of CD28 co-stimulatory molecule and sequences of the signaling chain of the CD3 complex (signal 1+2) (FIG. 6A) (Nolan et al., 1999). The clinical grade CEA-CAR vector producing cells have been successfully tested in a number of in vitro studies as well as in a clinical setting to modify T cells for breast cancer clinical trials (Katz et al., 2015). The first generation CEA-CAR contains anti-CEA binding domain fused with signaling chain (signal 1) (Nolan et al., 1999 Clin Cancer Res 5, 3928-3941). Transduction of T cells with anti CEA-CAR vector were as previously described (Beaudoin et al., 2008 Nat Med 9, 540-547).
MIP101 and MIPCEA, tumor cell coculture with CEA-CAR modified T cells. MIP101 is a CEA-undifferentiated human carcinoma cell line derived from liver metastases of colonic adenocarcinoma patients. The MIPCEA cell line was generated by stably expressing the full length CEA gene in MIP101 cells (Thomas et al., 1995 Cancer Lett 92, 59-66). […] Each time after the coculture, tumor cells were trypsinized (cellgro) and counted.

YY1 promoter = YY1 promoter luciferase reporter assay in restimulated T cells; settings: after four stimulations, continued presence of inhibitor; FIG. 5C upper
Method: Human YY1 promoter luciferase construct YY1-pGLuc-basic was a kind gift from Dr. Guangchao Sui of Wake Forest Health Sciences, NC (Huang et al., 2012 Nucleic Acids Res 40, 1033-1049). The cJun/ATF2 octameric palindrome cyclic AMP-response element (CRE), 5′-[…]-3′(SEQ ID NO: 40), was mutated to 5′-cGgCaTaA-3′ (SEQ ID NO: 41) using the service of GenScript Inc. (Item cat. 426354-1).
The reporter assays and plasmid overexpression were performed in 6 well tissue culture plates. 5×10^6 T cells were transfected with plasmids using Amaxa human T cell nucleofector Kit, cat. VPA-1002 (Lonza). Transfections were performed using Amaxa nucleofector II device, program no. T-023/T-020. Luciferase assays were generally performed 48 hours after transfections. […] The YY1 promoter luciferase assay was measured from T cell culture supernatants using BioLux Gaussia lucferase assay kit (New England Biolabs, cat. no. E3300S). Amounts of transfected plasmids were kept proportionally constant. Samples were assayed for reporter activity using a Gloma 20/20 Luminometer (Promega), essentially using the recommended parameters provided by the reagent suppliers.
In experiments using p38MAPK, JNK, MEK1 and Ezh2 inhibitors, cells were grown in the continued presence of inhibitors. After each wash and activation step, cells were treated with a fresh batch of inhibitors. […]

[2] = test system: phospho-ATF2, phospho-cJun and phospho-ERK; assay: Kinase activities by western blot (inhibitor specificity); settings: respectively, westerns, FIG. 18A
Method: as §1, §3

YY1 = assay: Western blot of YY1 protein in T cells grown with kinase inhibitors; settings: same cells as reporter assay; FIG. 5C lower
Method: as §1, §3

## CCCc1cc(C)[nH]c(=O)c1CNC(=O)c1cc(-c2ccc(N3CCN(C(C)C)CC3)nc2)cc2c1cnn2C(C)C [Ezh2 inhibitor]
CD4 T cells
  IL2 exceeding that of control T cells by a factor: > 40
H3-K27 trimethylation
  H3-K27 trimethylation by western: suppressed
[1]
  H3-K27 trimethylation of the IL2 promoter by ChIP/qPCR: suppressed
T cells
  IFNγ shutdown after repeated T cell stimulation: does not protect
CEA-CAR T cells
  IL2 production of CAR-T cells on repeated exposure to tumor cells: sustained IL2
MIPCEA cells
  net benefit in killing versus untreated CAR-T cells: 5 fold

## COc1cccc(-c2cc(=O)c3ccccc3o2)c1N [MEK1 inhibitor, PD98059]
YY1 promoter
  YY1 luciferase reporter transcriptional activity: no impact
[2]
  specificity to block the downstream kinases: confirmed

## Oc1ccc(-c2nc(-c3ccncc3)c(-c3ccc(F)cc3)[nH]2)cc1 [p38MAPK inhibitor, SB202190]
YY1 promoter
  YY1 luciferase reporter transcriptional activity: suppressed
YY1
  YY1 protein by Western blot: suppressed
[2]
  specificity to block the downstream kinases: confirmed

## nivolumab
CEA-CAR T cells
  IL2 production of CAR-T cells on repeated exposure to tumor cells: same IL2 loss as control T cells
